Key:
[1] = tested on: human breast cancer cell line (MCF-7); test: MTT cytotoxic assay, MCF-7; format: cell-based; details: MCF7, 48 h exposure
Protocol: (§1) All the compounds (1–3, 4a–o) were evaluated for their in vitro cytotoxic activity against three cancer cell lines including human breast cancer cell line (MCF-7), human hepatocarcinoma cell line (SMMC-7721), human cervical carcinoma cell line (HeLa), and a noncancerous human hepatocyte cell line (LO2) using the MTT assay method. An anticancer drug etoposide (VP-16) was co-assayed as the positive control. The results of the test compounds shown as IC50 values (concentration required to inhibit tumor cell proliferation by 50%), are listed in Table 1.
(§2) The in vitro cytotoxic activities of the quinoxaline derivatives of DAA were evaluated against a human breast cancer cell line (MCF-7), human hepatocarcinoma cell line (SMMC-7721), human cervical carcinoma cell line (HeLa) and noncancerous human hepatocyte cells (LO2) via the MTT colorimetric method. Briefly, different tumor cells were grown in DMEM supplemented with 10% fetal bovine serum, penicillin (100 U/mL), and streptomycin (50 μg/mL). Cells were harvested at the log phase of growth and seeded in 96-well plates (100 μL/well at a density of 2 × 10^5 cells/mL). After 24 h of incubation at 37 °C and 5% CO2 to allow for cell attachment, cultures were exposed to various concentrations of the isolated compounds for 48 h. Finally, the MTT solution (2.5 mg/mL in PBS) was added (40 μL/well). Plates were further incubated for 4 h at 37 °C, and the formazan crystals formed were dissolved by adding 150 μL/well of DMSO. Absorption at 570 nm was measured with an ELISA plate reader. The results were expressed as IC50 values with standard deviations, which were defined as the concentrations at which a 50% survival of the cells was discerned. Etoposide (VP-16) was co-assayed as the positive control.

[2] = tested on: human hepatocarcinoma cell line (SMMC-7721); test: MTT cytotoxic assay, SMMC-7721; format: cell-based; details: 48 h exposure
Protocol: as §1, §2

[3] = tested on: human cervical carcinoma cell line (HeLa); test: MTT cytotoxic assay, HeLa; format: cell-based; details: 48 h exposure
Protocol: as §1, §2

[4] = tested on: noncancerous human hepatocyte cells (LO2); test: MTT cytotoxic assay, LO2; format: cell-based; details: 48 h exposure, noncancerous hepatocytes
Protocol: as §1, §2

SMMC-7721 cells [5] = test: Cell cycle analysis (PI staining, flow cytometry); format: cell-based, human
Protocol: Subsequently, to determine the possible role of the cell cycle arrest in cell growth inhibition induced by target compounds, SMMC-7721 cells were treated with different concentrations of compound 4b. The cell cycle distribution was investigated by flow cytometric analysis after staining of DNA with propidium iodide (PI).
SMMC-7721 cells were treated with indicated concentrations of compound 4b. After incubation for 48 h, the cells were washed twice with ice-cold PBS, fixed and permeabilized with ice-cold 70% ethanol at −20 °C overnight. The cells were treated with 100 μg/mL RNase A at 37 °C for 30 min after being washed with ice-cold PBS, and finally stained with 400 μL of 1 mg/mL PI in the dark at 4 °C for 30 min. The samples were then analyzed for their DNA content by flow cytometry (Becton-Dickinson FACSCalibur, New York, NY, USA).

SMMC-7721 cells [6] = test: Hoechst 33258 staining assay; format: cell-based, human; details: SMMC-7721, 0.2, 1.0 and 5.0 μM, 24 h
Protocol: To investigate the morphological changes induced by compound 4b in SMMC-7721 cells, Hoechst staining was carried out. Hoechst 33258 is a cell membrane permeable dye, which stains the live cells’ nuclei uniformly as light-blue and apoptotic cells’ nuclei as round and bright-blue, on account of karyopyknosis and chromatin condensation. SMMC-7721 cells were treated with various concentrations (0, 0.2, 1.0 and 5.0 μM) of compound 4b for 24 h, and stained with Hoechst 33258.
Cells grown on a sterile cover slip in six-well plates were treated with different concentrations of the test compound for 24 h. The culture medium containing compounds was removed, and the cells were fixed in 4% paraformaldehyde for 10 min. After being washed twice with PBS, the cells were stained with 0.5 mL of Hoechst 33258 (Beyotime, Haimen, China) for 5 min, and then again washed twice with PBS. The stained nuclei were observed under a Nikon ECLIPSETE2000-S fluorescence microscope using 350 nm for excitation and 460 nm for emission.

SMMC-7721 cells [7] = test: Annexin V-FITC/PI dual staining assay; format: cell-based, human
Source text: The apoptotic effect of compound 4b was further evaluated by a Annexin V-FITC/propidium iodide (AV/PI) dual staining assay to examine the occurrence of phosphatidylserine externalization, which facilitated the detection of live cells (lower left quadrant; AV−/PI−), early apoptotic cells (lower right quadrant; AV+/PI−), late apoptotic cells (upper right quadrant; AV+/PI+) and necrotic cells (upper left quadrant; AV−/PI+).
Apoptosis was discriminated with the Annexin V-FITC/PI dual staining assay. SMMC-7721 cells were seeded at 1 × 10^5 cells per well in 10% fetal calf serum (FBS)-DMEM into six-well plates, and treated with compound 4b for 24 h. The cells were washed twice with cold PBS and then resuspended in 1 × binding buffer (0.1 M Hepes/NaOH (pH 7.4), 1.4 M NaCl, 25 mM CaCl2) at a concentration of 1 × 10^6 cells/mL. The solution (100 μL) was transferred to 5 mL culture tubes, and 5 μL of Annexin V-FITC (BD, Pharmingen) and 5 μL of PI were added to each tube. The cells were gently vortexed, and incubated for 30 min at 25 °C in the dark. PBS (200 μL) was added to each tube. The analysis was performed on a flow cytometry (Becton-Dickinson FACSCalibur, New York, NY, USA).

Compound: CCN(CC)Cc1nc2c(Br)cc3c(c2nc1CN(CC)CC)CCC1[C@](C)(C(=O)OC)CCC[C@]31C (stereo partly shown) [Compound 4b, Methyl 12-bromo-2′,3′-bis((diethylamino)methyl)-13,14-pyrazinyldeisopropyl-dehydroabietate]
- IC50 [1]: 1.78 ± 0.36 µM
- IC50 [2]: 0.72 ± 0.09 µM
- IC50 [3]: 1.08 ± 0.12 µM
- IC50 [4]: 11.1 ± 0.57 µM
- cell cycle arrest (SMMC-7721 cells [5]; SMMC-7721, 1.0-10.0 μM, 48 h): arrest SMMC-7721 cells in the G0/G1 stage
- G2/M phase cells (SMMC-7721 cells [5]; SMMC-7721, 48 h, end of the range 0-10.0 μM (control 10.42 ± 0.68%)): 18.13 ± 0.13%
- S phase cells (SMMC-7721 cells [5]; SMMC-7721, 48 h, end of the range 0-10.0 μM (control 32.24 ± 0.21%)): 8.54 ± 0.57%
- G0/G1 phase cells (SMMC-7721 cells [5]; SMMC-7721, 48 h, end of the range 0-10.0 μM (control 57.34 ± 0.48%)): 73.33 ± 0.69%
- nuclear morphological changes / apoptosis (Hoechst 33258) (SMMC-7721 cells [6]): induce apoptosis of SMMC-7721 cells in a dose-dependent manner
- percentage of early apoptotic cells (AV+/PI−) (SMMC-7721 cells [7]; SMMC-7721, 5.0 μM, 24 h (control 2.84 ± 0.26%)): 17.44 ± 0.68%
- percentage of late apoptotic cells (AV+/PI+) (SMMC-7721 cells [7]; SMMC-7721, 5.0 μM, 24 h (control 7.45 ± 0.42%)): 52.36 ± 1.23%
- apoptotic cells (early + late) (SMMC-7721 cells [7]; SMMC-7721, 5.0 μM, 24 h (control 10.29%)): 69.80%
- induction of apoptosis (Annexin V-FITC/PI) (SMMC-7721 cells [7]; SMMC-7721, 24 h): induce the apoptosis of SMMC-7721 cells in a dose-dependent manner
